Reference: the NIST ThermoML archive (doi:10.1021/je049610v)
Numbers after ± are expanded uncertainties.

What was measured:
[1] = xn = mol fraction of the nth substance listed; conditions: 101 kPa, Liquid
[2] = refractive index (Na D-line) (dimensionless); xn = mol fraction of the nth substance listed; conditions: 101 kPa, Liquid

COc1ccccc1 [anisole] + C1COCCO1
Conditions | mass density, 298.15 K [kg/m3] | mass density, 303.15 K [kg/m3] | mass density, 308.15 K [kg/m3] | refractive index, 298.15 K | refractive index, 303.15 K | refractive index, 308.15 K | speed of sound, 298.15 K [m/s] | viscosity, 298.15 K [mPa·s] | viscosity, 303.15 K [mPa·s] | viscosity, 308.15 K [mPa·s]
[1], x1 = 0.0982 | 1023.3 ± 2.1 | 1017.9 ± 2.2 | 1012.9 ± 2.2 | – | – | – | 1355 ± 8 | 1.342 ± 0.042 | 1.185 ± 0.037 | 1.028 ± 0.033
[1], x1 = 0.199 | 1018.4 ± 2.1 | 1013.2 ± 2.1 | 1008.2 ± 2.2 | – | – | – | 1364 ± 8 | 1.267 ± 0.04 | 1.128 ± 0.036 | 0.99 ± 0.032
[1], x1 = 0.296 | 1014 ± 2.1 | 1008.6 ± 2.1 | 1003.9 ± 2.2 | – | – | – | 1371 ± 8 | 1.19 ± 0.038 | 1.074 ± 0.034 | 0.957 ± 0.031
[1], x1 = 0.398 | 1009.7 ± 2 | 1004.6 ± 2.1 | 999.8 ± 2.2 | – | – | – | 1378 ± 8 | 1.12 ± 0.036 | 1.028 ± 0.033 | 0.936 ± 0.03
[1], x1 = 0.5046 | 1005.5 ± 2 | 1000.6 ± 2.1 | 995.7 ± 2.2 | – | – | – | 1385 ± 8 | 1.072 ± 0.034 | 0.994 ± 0.032 | 0.917 ± 0.03
[1], x1 = 0.6044 | 1001.8 ± 2 | 996.9 ± 2.1 | 992.1 ± 2.2 | – | – | – | 1390 ± 8 | 1.048 ± 0.034 | 0.976 ± 0.032 | 0.904 ± 0.03
[1], x1 = 0.7057 | 998.3 ± 2 | 993.5 ± 2.1 | 988.6 ± 2.2 | – | – | – | 1396 ± 8 | 1.042 ± 0.033 | 0.969 ± 0.031 | 0.897 ± 0.029
[1], x1 = 0.8028 | 995.1 ± 2 | 990.5 ± 2.1 | 985.4 ± 2.2 | – | – | – | 1401 ± 8 | 1.032 ± 0.033 | 0.957 ± 0.031 | 0.883 ± 0.029
[1], x1 = 0.9005 | 991.9 ± 2 | 987.4 ± 2.1 | 982.4 ± 2.2 | – | – | – | 1405 ± 8 | 1.011 ± 0.033 | 0.941 ± 0.031 | 0.87 ± 0.029
[1], x1 = 1 | 988.9 ± 2 | 984.1 ± 2.1 | 979.4 ± 2.1 | – | – | – | 1410 ± 8 | 0.992 ± 0.032 | 0.919 ± 0.03 | 0.853 ± 0.028
[2], x1 = 0.0982 | – | – | – | 1.432 ± 0.0024 | 1.4295 ± 0.0024 | 1.427 ± 0.0024 | – | – | – | –
[2], x1 = 0.199 | – | – | – | 1.4434 ± 0.0024 | 1.4408 ± 0.0024 | 1.4383 ± 0.0024 | – | – | – | –
[2], x1 = 0.296 | – | – | – | 1.4538 ± 0.0024 | 1.4514 ± 0.0024 | 1.4496 ± 0.0024 | – | – | – | –
[2], x1 = 0.398 | – | – | – | 1.4647 ± 0.0024 | 1.4628 ± 0.0024 | 1.4603 ± 0.0024 | – | – | – | –
[2], x1 = 0.5046 | – | – | – | 1.475 ± 0.0024 | 1.472 ± 0.0024 | 1.47 ± 0.0024 | – | – | – | –
[2], x1 = 0.6044 | – | – | – | 1.484 ± 0.0024 | 1.4814 ± 0.0024 | 1.4789 ± 0.0024 | – | – | – | –
[2], x1 = 0.7057 | – | – | – | 1.4925 ± 0.0024 | 1.4899 ± 0.0024 | 1.4872 ± 0.0024 | – | – | – | –
[2], x1 = 0.8028 | – | – | – | 1.5009 ± 0.0024 | 1.4982 ± 0.0024 | 1.4956 ± 0.0024 | – | – | – | –
[2], x1 = 0.9005 | – | – | – | 1.5084 ± 0.0024 | 1.5054 ± 0.0024 | 1.5025 ± 0.0024 | – | – | – | –
[2], x1 = 1 | – | – | – | 1.5148 ± 0.0024 | 1.5124 ± 0.0024 | 1.5092 ± 0.0024 | – | – | – | –

COc1ccccc1 [anisole] + CCOC(=O)C(=O)OCC
x1 = 1
Conditions | mass density, 298.15 K [kg/m3] | mass density, 303.15 K [kg/m3] | mass density, 308.15 K [kg/m3] | refractive index, 298.15 K | refractive index, 303.15 K | refractive index, 308.15 K | speed of sound, 298.15 K [m/s] | viscosity, 298.15 K [mPa·s] | viscosity, 303.15 K [mPa·s] | viscosity, 308.15 K [mPa·s]
[1] | 988.9 ± 2 | 984.1 ± 2.1 | 979.4 ± 2.1 | – | – | – | 1410 ± 8 | 0.992 ± 0.032 | 0.918 ± 0.03 | 0.853 ± 0.028
[2] | – | – | – | 1.5148 ± 0.0024 | 1.5124 ± 0.0024 | 1.5092 ± 0.0024 | – | – | – | –

COc1ccccc1 [anisole] + CN(C)C=O
Conditions | mass density, 298.15 K [kg/m3] | mass density, 303.15 K [kg/m3] | mass density, 308.15 K [kg/m3] | refractive index, 298.15 K | refractive index, 303.15 K | refractive index, 308.15 K | speed of sound, 298.15 K [m/s] | viscosity, 298.15 K [mPa·s] | viscosity, 303.15 K [mPa·s] | viscosity, 308.15 K [mPa·s]
[1], x1 = 0.1004 | 951 ± 1.9 | 946.6 ± 1.9 | 942.3 ± 2 | – | – | – | 1456 ± 8 | 0.833 ± 0.027 | 0.787 ± 0.026 | 0.739 ± 0.025
[1], x1 = 0.196 | 957 ± 1.9 | 952.7 ± 2 | 948.2 ± 2 | – | – | – | 1451 ± 8 | 0.859 ± 0.028 | 0.81 ± 0.027 | 0.76 ± 0.025
[1], x1 = 0.2939 | 962.9 ± 1.9 | 958.2 ± 2 | 953.9 ± 2.1 | – | – | – | 1445 ± 8 | 0.886 ± 0.029 | 0.833 ± 0.027 | 0.78 ± 0.026
[1], x1 = 0.3966 | 968.5 ± 1.9 | 964.1 ± 2 | 959.7 ± 2.1 | – | – | – | 1438 ± 8 | 0.912 ± 0.03 | 0.856 ± 0.028 | 0.799 ± 0.026
[1], x1 = 0.4975 | 973.4 ± 1.9 | 968.8 ± 2 | 964.4 ± 2.1 | – | – | – | 1432 ± 8 | 0.937 ± 0.03 | 0.878 ± 0.029 | 0.819 ± 0.027
[1], x1 = 0.5983 | 977.6 ± 1.9 | 973.2 ± 2 | 968.7 ± 2.1 | – | – | – | 1427 ± 8 | 0.957 ± 0.031 | 0.897 ± 0.029 | 0.836 ± 0.028
[1], x1 = 0.6953 | 981.2 ± 2 | 976.9 ± 2 | 972.4 ± 2.1 | – | – | – | 1422 ± 8 | 0.977 ± 0.031 | 0.913 ± 0.03 | 0.851 ± 0.028
[1], x1 = 0.7984 | 984.7 ± 2 | 980.3 ± 2 | 975.9 ± 2.1 | – | – | – | 1418 ± 8 | 0.994 ± 0.032 | 0.928 ± 0.03 | 0.863 ± 0.028
[1], x1 = 0.9042 | 987.7 ± 2 | 983.3 ± 2.1 | 978.5 ± 2.1 | – | – | – | 1413 ± 8 | 1.006 ± 0.032 | 0.938 ± 0.03 | 0.871 ± 0.029
[1], x1 = 1 | 988.9 ± 2 | 984.1 ± 2.1 | 979.4 ± 2.1 | – | – | – | 1410 ± 8 | 0.992 ± 0.032 | 0.919 ± 0.03 | 0.853 ± 0.028
[2], x1 = 0.1004 | – | – | – | 1.4407 ± 0.0024 | 1.4381 ± 0.0024 | 1.4356 ± 0.0024 | – | – | – | –
[2], x1 = 0.196 | – | – | – | 1.4513 ± 0.0024 | 1.4487 ± 0.0024 | 1.4462 ± 0.0024 | – | – | – | –
[2], x1 = 0.2939 | – | – | – | 1.4614 ± 0.0024 | 1.4587 ± 0.0024 | 1.4558 ± 0.0024 | – | – | – | –
[2], x1 = 0.3966 | – | – | – | 1.4708 ± 0.0024 | 1.4683 ± 0.0024 | 1.4656 ± 0.0024 | – | – | – | –
[2], x1 = 0.4975 | – | – | – | 1.4798 ± 0.0024 | 1.4771 ± 0.0024 | 1.4744 ± 0.0024 | – | – | – | –
[2], x1 = 0.5983 | – | – | – | 1.4878 ± 0.0024 | 1.4852 ± 0.0024 | 1.4825 ± 0.0024 | – | – | – | –
[2], x1 = 0.6953 | – | – | – | 1.4953 ± 0.0024 | 1.4928 ± 0.0024 | 1.4902 ± 0.0024 | – | – | – | –
[2], x1 = 0.7984 | – | – | – | 1.5024 ± 0.0024 | 1.5 ± 0.0024 | 1.4973 ± 0.0024 | – | – | – | –
[2], x1 = 0.9042 | – | – | – | 1.5099 ± 0.0024 | 1.5071 ± 0.0024 | 1.5043 ± 0.0024 | – | – | – | –
[2], x1 = 1 | – | – | – | 1.5148 ± 0.0024 | 1.5124 ± 0.0024 | 1.5092 ± 0.0024 | – | – | – | –
